Measured values as given in BigSolDB 2.1.

Cc1cccc(C(=O)O)c1N
solubility (mole fraction)
Conditions	278.15 K	283.15 K	288.15 K	293.15 K	298.15 K	303.15 K	308.15 K	313.15 K	318.15 K
in 1,4-dioxane	–	–	0.108	0.117	0.127	0.137	0.148	0.159	0.171
in 2-butanone	0.0646	0.0721	0.0792	0.0872	0.0953	0.104	0.114	0.124	0.134
in acetone	0.0745	0.0829	0.0918	0.101	0.111	0.121	0.132	0.143	0.154
in acetonitrile	0.0227	0.0275	0.0329	0.039	0.0461	0.054	0.0628	0.0727	0.0834
in cyclohexane	–	8.89e-05	0.000115	0.000153	0.000204	0.00027	0.00035	0.000454	0.000578
in ethanol	0.0176	0.0208	0.0244	0.0286	0.0333	0.0385	0.0444	0.0509	0.0582
in ethyl acetate	0.0294	0.0345	0.0405	0.0469	0.054	0.0619	0.0704	0.0803	0.0907
in isopropanol	0.00876	0.0109	0.0138	0.017	0.0208	0.0253	0.0303	0.036	0.0427
in methanol	0.02	0.0235	0.0273	0.0317	0.0367	0.0423	0.0483	0.055	0.0624
in n-butanol	0.0117	0.0144	0.0176	0.0212	0.0254	0.0302	0.0357	0.0422	0.0498
in n-propanol	0.0151	0.0178	0.0212	0.0251	0.0293	0.0344	0.04	0.046	0.0532
in toluene	0.0011	0.00145	0.00184	0.00235	0.00298	0.00382	0.0049	0.00619	0.00797
